Measured values as given in ChEMBL document CHEMBL5137105, “Tricyclic Carboxamide Derivatives as PRMT5 Inhibitors for Treating Cancer” (ACS Med Chem Lett, 2022).

Assay: Antiproliferative activity against human HCT116-MTAP null cells assessed as reduction in cell viability incubated for 6 days by CellTiter-Glo luminescent assay
Format: functional, cell-based
Details: 144 h

Structure (SMILES) | IC50
CC1OCc2c1c(N)nc1ccc(C(=O)N(Cc3ccc(C(F)(F)F)cn3)Cc3ccnc4[nH]ccc34)cc21 (stereo unspecified) | 6 nM
C[C@H](c1ncccn1)N(Cc1ccc(C(F)(F)F)cn1)C(=O)c1ccc2nc(N)c3c(c2c1)CCC3 | 6 nM
Cn1cc(N(Cc2ccc(C(F)(F)F)cn2)C(=O)c2cc3c(cc2F)nc(N)c2cnn(C)c23)cn1 | 5 nM
C[C@H](c1ncccn1)N(Cc1ccc(C#N)c(Cl)n1)C(=O)c1ccc2nc(N)c3c(c2c1)COC3 | 5 nM
Cn1cc(N(Cc2ccc(C(F)(F)F)cn2)C(=O)c2cc3c4c(c(N)nc3cc2Cl)COC4)cn1 | 6 nM
Cn1ncc2c(N)nc3cc(F)c(C(=O)N(Cc4ccc(C(F)(F)F)cn4)C4CCC4)cc3c21 | 5 nM
